This is an account of results in patent US20120277296A1, “Selective CB2 Receptor Agonists for Use in the Prevention or Treatment of Alcoholic Liver Disease” (priority 2009, published 2012).

Molecules are shown by their SMILES. Entries after “also recorded” stand apart in the source; their conditions may differ.

The test system of one assay is TNF-α mRNA expression. Description: Chronic ethanol feeding model: hepatic inflammation, TNF-α mRNA expression by RT-PCR. The assay is classed as in vivo, mouse. The settings on record: WT mice fed EtOH, JWH-133 3 mg/kg daily intraperitoneal during 10 day ethanol feeding, vs. vehicle. As for the experimental part: Animals. Female mice (8-10 week old) were used for the experiments and included wild type (WT) C57B1/6J mice (Janvier, France) and mice with a targeted mutation of the Cnr2 gene (Buckley et al. 2000). Homozygous Cnr2−/− animals were obtained from heterozygous Cnr2+/− mice that were backcrossed with WT C57Bl/6J animals over 10 generations, and further intercrossed to obtain homozygous animals. Genotyping was performed on tail genomic DNA using QuantiTect™ SYBR® Green PCR kit (Qiagen). Animals were housed in temperature and humidity controlled rooms, kept on a 12-h light/dark cycle and provided unrestricted amounts of food and water. […]
(§1) Chronic exposure to ethanol. […] Body weight and food intake were measured daily.
(§2) The impact of the CB2 agonist JWH-133 or its vehicle was evaluated in WT mice that were treated with a daily intraperitoneal injection of JWH-133 (3 mg/kg) or its vehicle during the 10 day feeding with ethanol. […] Body weight and food intake were measured daily. […]
RNA preparation and RT-PCR. […] Quantitative real time-PCR was carried out on a Light Cycler (Roche Diagnostics), as previously described (Julien et al. 2005). Oligonucleotide primers (MWG Biotech) for the following mouse genes were used: mouse Rn18S; mouse Tnf, PCR amplified products were analyzed on a 2% agarose gel and sequenced.

The test system of assay [1] is WT mice fed EtOH (EtOH-induced hepatic steatosis). Put plainly: Chronic ethanol feeding model (modified Lieber-De Carli diet, 10 days): hepatic steatosis. The settings on record: JWH-133 3 mg/kg daily intraperitoneal during 10 day ethanol feeding, vs. vehicle. The class given is in vivo, mouse. The method, then:
Animals. Female mice (8-10 week old) were used for the experiments and included wild type (WT) C57B1/6J mice (Janvier, France) and mice with a targeted mutation of the Cnr2 gene (Buckley et al. 2000). Homozygous Cnr2−/− animals were obtained from heterozygous Cnr2+/− mice that were backcrossed with WT C57Bl/6J animals over 10 generations, and further intercrossed to obtain homozygous animals. Genotyping was performed on tail genomic DNA using QuantiTect™ SYBR® Green PCR kit (Qiagen). Animals were housed in temperature and humidity controlled rooms, kept on a 12-h light/dark cycle and provided unrestricted amounts of food and water. Animal procedures were conducted in accordance with French government policies (Services Vétérinaires de la Santé et de la Production Animale, Ministère de l'Agriculture).
as §1, §2
Hepatic triglyceride quantification. […] Triglycerides were quantified with a triglyceride determination kit (Sigma), on liver samples from 10-15 animals per group.

Consider `CCCC(C)(C)c1ccc2c(c1)OC(C)(C)[C@@H]1CC=C(C)C[C@@H]21` [JWH-133, (6aR,10aR)-3-(1,1-dimethylbutyl)-6a,7,10,10a-tetrahydro-6,6,9-trimethyl-6Hdibenzo[b,d]pyran], for which the “TNF-α mRNA expression in liver” value in the assay on TNF-α mRNA expression is reported as “prevents the increase; also recorded: reduced TNF-α mRNA levels to control levels”. Also, in assay [1], the hepatic triglyceride content entry is “decrease; also recorded: strongly reduced” and the liver/body weight ratio result was “decrease; also recorded: strongly reduced”.
